# Data: paper PMC5717258, “Bioaccumulation of pharmaceuticals and personal care product chemicals in fish exposed to wastewater effluent in an urban wetland” (Scientific Reports, 2017)
# Read-outs that look alike come from different tables or passages of the source.
# Key:
# [1] = cited from earlier work
# [2] = cited from earlier work; remark: listed apart in the source
# in vivo = settings: for concentration at 21 days: goldfish (Carassius auratus), in vivo
# From the text: Cages were visited weekly, and fish (13/cage) were fed during the visits (20 g/cage). All animal experiments were in accordance with CCAC guidance and approved by the GLLFAS-WSTD Animal Care Committee (Government of Canada). Further details on the caging and preparation of the fish and animal care protocols are provided in Simmons et al.[32]. […] A fourth site, Jordan Harbour (JH), a widening of 20 Mile Creek adjacent to Lake Ontario near Jordan ON, served as a reference site. Mass and fork length were measured and recorded. Plasma collection and storage is described in the SI. Plasma of caged goldfish was divided for proteome, metabolome and PPCP analysis. Due to limited volumes, pooled samples of plasma from 25 individual fish (50 µL/individual) was pooled to yield one sample from at each location for PPCP analysis.
# (§1) A total of 20 fish plasma samples from the pooled caged fish (7) and the wild fish (13) along with 12 water samples were selected for analysis. […] A full list of analytes is provided in Supplementary Information. Mass labelled^13C-, or deuterated surrogate internal standards were used for quantification of all analytes via the isotope dilution/surrogate standard quantitation method. Prior to extraction and/or clean-up procedures, aqueous samples were adjusted to pH 2.0, spiked with extraction surrogate standards, then adjusted to pH 4 using tetrasodium ethylenediamine-tetraacetate dihydrate. Plasma samples (2.3–2.5 g) were spiked with extraction surrogate standards, sonicated with 20 mL acetonitrile, then diluted with ultra-pure water to 200 mL. The extracts were cleaned up by solid phase extraction using Oasis HLB cartridges (Waters Ltd. Mississauga ON), filtered, and analyzed by liquid chromatography-electrospray ionization-tandem mass spectrometry (LC/ESI-MS/MS) in positive or negative ionization mode. The analysis of the complete list of analytes (SI Table S1) required a total of five instrumental runs.
# (§2) Quality assurance steps included analysis of lab blanks for water and plasma along with matrix recovery spikes. […] Detection limits (DLs) were defined as lowest calibration level adjusted to the maximal sample size or 3 times the signal of the noise in the target channel converted to an equivalent sample, whichever was greater. […] Where analytes were detected in two or more samples of the same species or series of water samples, non-detect values were converted to ½ the DL value for reporting purposes.
# [3] = Protocol: Plasma from 9 individual male fish (500 µL/individual) was pooled to yield 3 samples for PPCP analysis. […] Plasma from 6 individual carp (2.3–3.5 g) from each location was selected for PPCP analysis. […] Plasma samples were frozen (−80 °C) until analysis.
# as §1, §2
# [4] = parameters: method as in US EPA Chemistry Dashboard; settings: ref US EPA Chemistry Dashboard; cited from earlier work
# [5] = human, ref Schulz et al.[56], cited from earlier work; for Therapeutic "normal" blood-plasma/serum concentration: converted from µg/mL
# [6] = Plasma bioaccumulation factor (BAFP), goldfish; assay type: in vivo, goldfish (Carassius auratus); settings: for BAFP, CPM2 goldfish caged: water sample of August 2012
# Protocol: Bioaccumulation factor (BAFP) was calculated as concentration in fish plasma (ng/g × 1000) divided by concentration in water (ng/L). Two widely used modeling approaches for predicting organic contaminant bioaccumulation were assessed: the BCF-BAF model for whole body BAFs[53] and the fish-plasma concentration calculation of Huggett et al.[35] modified by Berninger et al.[54]. The latter involves estimating an octanol-water partition coefficient (Kow) adjusted for fraction ionized (log D), using the pKa value to adjust log Kow[54] taking into account the pH of CPM waters. Further information on the calculation of log D, blood-water partitioning (PBW), and plasma concentrations (FPC) is given in the SI.
# [7] = wild goldfish sample 01, 2012, wet weight
# [8] = wild goldfish sample 02, 2012, wet weight
# [9] = wild goldfish sample 03, 2012, wet weight
# [10] = Table S7, ref Meador et al. (2016)
# [11] = male, goldfish (Carassius auratus), in vivo
compound,measurement,setting,value
CN(C)CCC=C1c2ccccc2CC(O)c2ccccc21 (stereo not shown) [10-hydroxy-amitriptyline],Sculpin (whole body) concentration,[1]; in vivo,0.13 ng/g
same,Salmon (whole body) concentration,[2]; in vivo,0.09 ng/g
same,"plasma concentration, CPM1 caged","in vivo; CPM1, 07-2014, pooled plasma, wet weight",0.033 ng/g
same,"plasma concentration, CPM2 caged","in vivo; CPM2, 07-2014, pooled plasma, wet weight",0.039 ng/g
same,"plasma concentration, CPM3 caged","in vivo; CPM3, 07-2014, pooled plasma, wet weight",0.015 ng/g
same,"plasma concentration, JH caged","in vivo; Jordan Harbour reference site, 07-2014, pooled plasma, wet weight",< 0.03 ng/g
same,"plasma concentration, CPM-C 01","[3]; Cootes carp 01, 2011, male, wet weight",0.032 ng/g
same,"plasma concentration, CPM-C 2","[3]; Cootes carp 2, Sep 27, 2011, male, wet weight",0.053 ng/g
same,"plasma concentration, CPM-C 10","[3]; Cootes carp 10, Sep 28, 2011, female, wet weight",0.024 ng/g
same,"plasma concentration, CPM-C 13","[3]; Cootes carp 13, Sep 28, 2011, female, wet weight",0.047 ng/g
same,"plasma concentration, CPM-C 20","[3]; Cootes carp 20, 2011, male, wet weight",0.016 ng/g
same,"plasma concentration, CPM-C 36","[3]; Cootes carp 36, Oct 3, 2011, female, wet weight",0.025 ng/g
same,"Carp plasma concentration, this study (range)",[3]; Table S7,0.02 to 0.05 ng/g
same,"Goldfish plasma concentration, this study (range)",[3]; Table S7,0.01 to 0.06 ng/g
same,"plasma concentration, CPM wild-01",[3]; [7],0.015 ng/g
same,"plasma concentration, CPM wild-02",[3]; [8],0.036 ng/g
same,"plasma concentration, CPM wild-03",[3]; [9],0.058 ng/g
"Cc1nnc2n1-c1ccc(Cl)cc1C(c1ccccc1)=NC2 [Alpr azolam, Alprazolam]",Sculpin (whole body) concentration,[1]; [10],0.38 ng/g
CN(C)CCC=C1c2ccccc2CCc2ccccc21 [Amitriptyline],Salmon (whole body) concentration,[2]; [10],0.58 to 0.68 ng/g
same,concentration at 21 days,"in vivo; plasma concentration, CPM1 caged, CPM1, 07-2014, pooled plasma, wet weight",0.029 ng/g
same,concentration at 21 days,"in vivo; plasma concentration, CPM2 caged, CPM2, 07-2014, pooled plasma, wet weight",0.029 ng/g
same,concentration at 21 days,"in vivo; plasma concentration, CPM3 caged, CPM3, 07-2014, pooled plasma, wet weight",0.031 ng/g
same,concentration at 21 days,"in vivo; plasma concentration, JH caged, Jordan Harbour reference site, 07-2014, pooled plasma, wet weight",< 0.06 ng/g
same,"Goldfish plasma concentration, this study (range)",[3]; Table S7,0.03 to 0.09 ng/g
same,"plasma concentration, CPM wild-01",[3]; [7],0.029 ng/g
same,"plasma concentration, CPM wild-02",[3]; [8],0.082 ng/g
same,"plasma concentration, CPM wild-03",[3]; [9],0.091 ng/g
"CC[C@H]1OC(=O)[C@H](C)[C@@H](O[C@H]2C[C@@](C)(OC)[C@@H](O)[C@H](C)O2)[C@H](C)[C@@H](O[C@@H]2O[C@H](C)C[C@H](N(C)C)[C@H]2O)[C@](C)(O)C[C@@H](C)CN(C)[C@H](C)[C@@H](O)[C@]1(C)O [Azithrom yc in, Azithromycin]",Salmon (whole body) concentration,[2]; [10],1.7 ng/g
CN1[C@@H]2CC[C@H]1C[C@@H](OC(c1ccccc1)c1ccccc1)C2 [Benztropine],"whole fish concentration, sculpin",[1]; ref Meador et al. 18,< mdl
same,Salmon (whole body) concentration,[2]; [10],0.2 ng/g
same,"whole fish concentration, salmon",[2]; ref Meador et al. 18,0.2 ng/g wet weight or ng/mL for plasma
same,log Kow,[4],3.85
same,"Therapeutic ""normal"" blood-plasma/serum concentration",[5],10 to 180 ng/mL
same,toxic dose (toxic blood-plasma/serum concentration),[5],50 ng/mL
CC(C)(c1ccc(O)cc1)c1ccc(O)cc1 [Bisphenol A],Sculpin (whole body) concentration,[1]; [10],3.6 to 4.5 ng/g
same,Salmon (whole body) concentration,[2]; [10],3.3 to 41 ng/g
"O=C(O)c1cn(C2CC2)c2cc(N3CCNCC3)c(F)cc2c1=O [Ciproﬂoxacin, Ciprofloxacin]",Sculpin (whole body) concentration,[1]; [10],17 ng/g
CN(C)CCCC1(c2ccc(F)cc2)OCc2cc(C#N)ccc21 (stereo not shown) [Citalopram],log Kow,[4],3.74
same,concentration at 21 days,"in vivo; caged goldfish plasma, range of concentrations",0.04 to 0.13 ng/g
same,concentration at 21 days,"in vivo; plasma concentration, CPM1 caged",0.145 ng/g
same,concentration at 21 days,"in vivo; plasma concentration, CPM2 caged",0.163 ng/g
same,concentration at 21 days,"in vivo; plasma concentration, CPM3 caged",0.041 ng/g
same,concentration at 21 days,"in vivo; plasma concentration, JH caged",< 0.08 ng/g
same,"BAFP, CPM1 goldfish caged",[6],4 L/kg
same,"BAFP, CPM2 goldfish caged",[6],6 L/kg
same,"BAFP, CPM3 goldfish caged",[6]; CPM3,52 L/kg
same,"BAFP at CPM3, wild goldfish, average",[6]; conc in fish plasma/conc in water,44 L/kg
same,"BAFP at CPM3, wild goldfish, range",[6]; range based on range of plasma concentrations,18 to 58 L/kg
same,"plasma concentration, carp, this study (mean)",[3]; in vivo,< mdl
same,"plasma concentration, CPM wild-01",[3]; [11],0.0392 ng/g
same,"plasma concentration, CPM wild-02",[3]; [11],0.127 ng/g
same,"plasma concentration, CPM wild-03",[3]; [11],0.13 ng/g
same,"plasma concentration, goldfish, this study (mean)",[3]; [11],0.10 ng/g wet weight or ng/mL for plasma
same,"wild goldfish plasma, range of concentrations",[3]; [11],0.04 to 0.16 ng/g
same,"Therapeutic ""normal"" blood-plasma/serum concentration",[5],50 to 110 ng/mL
"CNCCN1C(=O)[C@H](OC(C)=O)[C@H](c2ccc(OC)cc2)Sc2ccccc21 [Desm eth yld ilt ia zem, Desmethyldiltiazem]",Sculpin (whole body) concentration,[1]; [10],0.07 to 0.08 ng/g
same,Salmon (whole body) concentration,[2]; [10],0.06 to 1.5 ng/g
CN1C(=O)CN=C(c2ccccc2)c2cc(Cl)ccc21 [Diazepam],Sculpin (whole body) concentration,[1]; [10],0.25 ng/g
same,Salmon (whole body) concentration,[2]; [10],0.39 ng/g
CN(C)CCOC(c1ccccc1)c1ccccc1 [Diphenhydramine],"BAFP, CPM1 goldfish caged",[6],7 L/kg
same,"BAFP, CPM2 goldfish caged",[6],5 L/kg
